Results on 10 compounds are retold here after patent US9957270B2, “Fused pyrimidine-based hydroxamate derivatives” (Agency for Science, Technology and Research, priority 2014, dated 2018).

Some results are limits rather than exact numbers.

Data set [1] in a line: Microsomal stability, human liver microsomes. The procedure:
(§1) GIBIO pooled human liver microsomes (HLM) (Cat # HMMCPL), mouse liver microsomes (MLM) (Cat # BCMCPL), and rat liver microsomes (RLM) (Cat # RTMCPL) were purchased from Life Technologies. […] Samples are incubated for 30, 45, or 60 min. Reaction is terminated with ice-cold acetonitrile 0.3% formic acid. Samples are subsequently centrifuged at 4° C. for 15 min at 20,000×g. The supernatant is analysed by LC-MS.
(§2) Compound in vitro metabolic stability was assayed using liver microsomes (LM) at 0.5 mg/mL of proteins, incubated for 30 min (mouse, MLM), 45 min (rat, RLM), 30 or 45 min (human, HLM). % of remaining parent compound was measured using LC-MS.

The nature of data set [2]: Microsomal stability, mouse liver microsomes. The procedure:
as §1, §2

Data set [3] can be described thus: Microsomal stability, rat liver microsomes. The procedure:
as §1, §2

In the next data set the test system is COLO 205. Put plainly: cells. The settings on record: Homo sapiens, COLO 205, 72 h, read-out: In Vitro Cellular IC50 COLO 205.
The next data set concerns MV-4-11. Description: cells. The conditions noted are these: Homo sapiens, MV4-11, 72 h, read-out: In Vitro Cellular IC50 MV-4-11.
The next data set deals with HDAC1 (Homo sapiens, UniProt Q13547). Put plainly: HDAC enzyme assay, recombinant HDAC1.
Data set [4] concerns the target HDAC (HeLa nuclear extracts). Put plainly: HDAC enzyme assay, HeLa nuclear extracts. The conditions noted are these: read-out: In Vitro Enzymatic IC50 HDAC (HeLa).
For another data set, the system named is MCF7. Put plainly: Anti-proliferative assay (cellular IC50), MCF7. The conditions noted are these: Homo sapiens, MCF7, 72 h, read-out: In Vitro Cellular IC50 MCF7.
The subject of the next data set is PC-3. Put plainly: Anti-proliferative assay (cellular IC50), PC-3. The settings on record: Homo sapiens, PC-3, 72 h, read-out: In Vitro Cellular IC50 PC-3.
The next data set concerns K-562. Put plainly: Anti-proliferative assay (cellular IC50), K-562. The settings on record: Homo sapiens, K562, 72 h, read-out: In Vitro Cellular IC50 K-562.
Another data set deals with MOLT-4. Put plainly: Anti-proliferative assay (cellular IC50), MOLT-4. The conditions noted are these: Homo sapiens, MOLT-4, 72 h, read-out: In Vitro Cellular IC50 MOLT-4.
The next data set concerns the target T1, PI3Kα (Homo sapiens, UniProt P42336).
T1 construct: purchased Invitrogen, or BPS Bioscience Inc., or SignalChem PV4788 / 40620 / P27-18H
Put plainly: Kinase enzyme assay (ADP-Glo), PI3Kα. The settings on record: read-out: In Vitro Enzymatic IC50 PI3Kα. It is filed as biochemical.

Another data set addresses T2, HDAC6 (Homo sapiens, UniProt Q9UBN7).
T2 sequence (Q9UBN7 1-1215): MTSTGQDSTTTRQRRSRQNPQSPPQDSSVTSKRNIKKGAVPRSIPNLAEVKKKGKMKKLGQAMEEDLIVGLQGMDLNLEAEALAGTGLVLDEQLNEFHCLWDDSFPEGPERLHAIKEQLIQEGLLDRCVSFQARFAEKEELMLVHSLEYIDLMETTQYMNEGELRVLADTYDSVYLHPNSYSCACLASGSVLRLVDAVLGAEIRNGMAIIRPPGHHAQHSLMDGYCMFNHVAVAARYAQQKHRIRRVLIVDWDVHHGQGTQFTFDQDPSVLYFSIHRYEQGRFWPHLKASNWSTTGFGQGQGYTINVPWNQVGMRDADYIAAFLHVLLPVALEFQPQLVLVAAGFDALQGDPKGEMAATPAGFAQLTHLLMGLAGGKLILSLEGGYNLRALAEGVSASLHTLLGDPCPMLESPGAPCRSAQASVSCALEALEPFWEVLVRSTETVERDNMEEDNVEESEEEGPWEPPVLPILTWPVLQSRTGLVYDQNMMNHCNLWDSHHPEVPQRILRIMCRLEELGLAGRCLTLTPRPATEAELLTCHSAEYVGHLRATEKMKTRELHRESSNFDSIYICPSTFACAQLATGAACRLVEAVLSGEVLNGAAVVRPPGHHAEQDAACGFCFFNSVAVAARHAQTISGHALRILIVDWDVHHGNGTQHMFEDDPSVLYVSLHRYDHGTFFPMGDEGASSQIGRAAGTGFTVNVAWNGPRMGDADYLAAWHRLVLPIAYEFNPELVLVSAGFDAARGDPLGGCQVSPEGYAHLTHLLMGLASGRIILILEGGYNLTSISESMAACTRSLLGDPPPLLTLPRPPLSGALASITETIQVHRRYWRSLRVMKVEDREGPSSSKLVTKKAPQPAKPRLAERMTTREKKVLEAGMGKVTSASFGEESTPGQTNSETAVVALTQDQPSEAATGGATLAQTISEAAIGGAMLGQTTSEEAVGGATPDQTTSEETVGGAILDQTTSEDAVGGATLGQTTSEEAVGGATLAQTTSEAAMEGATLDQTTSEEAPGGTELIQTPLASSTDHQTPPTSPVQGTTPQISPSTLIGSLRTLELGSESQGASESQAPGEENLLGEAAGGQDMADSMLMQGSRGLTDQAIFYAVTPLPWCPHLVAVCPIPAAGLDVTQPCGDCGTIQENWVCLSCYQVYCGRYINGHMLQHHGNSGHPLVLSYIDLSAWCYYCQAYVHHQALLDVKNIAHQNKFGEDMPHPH
Put plainly: HDAC enzyme assay, recombinant HDAC6.

A further data set has as its system HepG2. Description: Anti-proliferative assay (cellular IC50), HepG2. The settings on record: Homo sapiens, HepG2, 72 h, read-out: In Vitro Cellular IC50 HepG2.
The test system of a further data set is HCT 116. Put plainly: cells. The settings on record: Homo sapiens, HCT-116, 72 h, read-out: In Vitro Cellular IC50 HCT 116.
[5] abbreviates: human, microsomes, 0.75 h, 5 μM, pH 7.4.
Setting [6] is: mouse, microsomes, 0.5 h, 5 μM, pH 7.4.
Where [7] appears, read: rat, microsomes, 0.75 h, 5 μM, pH 7.4.

Chain of HDAC1 (Q13547 whole entry): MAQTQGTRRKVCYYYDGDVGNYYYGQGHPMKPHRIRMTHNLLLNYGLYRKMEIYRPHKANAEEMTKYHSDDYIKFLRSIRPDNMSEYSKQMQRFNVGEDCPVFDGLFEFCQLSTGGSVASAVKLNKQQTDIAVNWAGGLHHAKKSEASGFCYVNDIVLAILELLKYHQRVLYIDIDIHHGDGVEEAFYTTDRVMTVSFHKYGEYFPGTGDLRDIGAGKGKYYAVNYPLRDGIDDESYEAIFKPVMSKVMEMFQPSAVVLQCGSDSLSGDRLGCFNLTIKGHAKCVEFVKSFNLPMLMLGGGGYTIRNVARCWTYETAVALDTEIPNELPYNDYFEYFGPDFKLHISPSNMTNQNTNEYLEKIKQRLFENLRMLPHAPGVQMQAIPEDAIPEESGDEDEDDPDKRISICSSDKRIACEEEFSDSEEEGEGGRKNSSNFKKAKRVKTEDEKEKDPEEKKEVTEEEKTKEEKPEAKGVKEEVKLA
T1 sequence (P42336 whole entry): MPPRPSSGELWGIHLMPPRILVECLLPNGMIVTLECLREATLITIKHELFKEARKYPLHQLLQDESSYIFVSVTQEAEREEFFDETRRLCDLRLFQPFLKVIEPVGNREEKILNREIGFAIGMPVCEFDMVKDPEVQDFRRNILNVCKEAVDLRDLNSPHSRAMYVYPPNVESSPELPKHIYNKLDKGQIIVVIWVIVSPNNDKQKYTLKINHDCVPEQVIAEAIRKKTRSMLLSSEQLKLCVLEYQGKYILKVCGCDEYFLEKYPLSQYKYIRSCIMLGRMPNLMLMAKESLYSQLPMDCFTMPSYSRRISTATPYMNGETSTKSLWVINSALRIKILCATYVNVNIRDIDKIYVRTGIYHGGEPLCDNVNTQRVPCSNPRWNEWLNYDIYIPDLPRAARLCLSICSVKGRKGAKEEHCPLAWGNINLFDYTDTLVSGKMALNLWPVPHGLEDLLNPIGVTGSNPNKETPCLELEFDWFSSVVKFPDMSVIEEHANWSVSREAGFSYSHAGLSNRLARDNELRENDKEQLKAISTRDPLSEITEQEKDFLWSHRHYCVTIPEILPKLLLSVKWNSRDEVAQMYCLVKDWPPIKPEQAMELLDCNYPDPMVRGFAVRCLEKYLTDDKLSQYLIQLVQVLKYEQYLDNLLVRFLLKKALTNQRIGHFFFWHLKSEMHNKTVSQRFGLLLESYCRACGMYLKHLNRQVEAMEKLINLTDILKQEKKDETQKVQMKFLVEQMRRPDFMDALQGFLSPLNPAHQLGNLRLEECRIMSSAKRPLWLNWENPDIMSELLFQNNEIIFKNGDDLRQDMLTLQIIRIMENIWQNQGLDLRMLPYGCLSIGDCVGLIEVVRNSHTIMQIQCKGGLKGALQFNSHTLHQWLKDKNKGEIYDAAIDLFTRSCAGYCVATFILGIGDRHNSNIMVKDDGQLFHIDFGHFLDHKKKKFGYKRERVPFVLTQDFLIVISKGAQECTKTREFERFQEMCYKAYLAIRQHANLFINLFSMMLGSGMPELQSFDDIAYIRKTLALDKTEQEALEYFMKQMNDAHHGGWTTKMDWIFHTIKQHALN
T1 sequence (P27986 whole entry partner): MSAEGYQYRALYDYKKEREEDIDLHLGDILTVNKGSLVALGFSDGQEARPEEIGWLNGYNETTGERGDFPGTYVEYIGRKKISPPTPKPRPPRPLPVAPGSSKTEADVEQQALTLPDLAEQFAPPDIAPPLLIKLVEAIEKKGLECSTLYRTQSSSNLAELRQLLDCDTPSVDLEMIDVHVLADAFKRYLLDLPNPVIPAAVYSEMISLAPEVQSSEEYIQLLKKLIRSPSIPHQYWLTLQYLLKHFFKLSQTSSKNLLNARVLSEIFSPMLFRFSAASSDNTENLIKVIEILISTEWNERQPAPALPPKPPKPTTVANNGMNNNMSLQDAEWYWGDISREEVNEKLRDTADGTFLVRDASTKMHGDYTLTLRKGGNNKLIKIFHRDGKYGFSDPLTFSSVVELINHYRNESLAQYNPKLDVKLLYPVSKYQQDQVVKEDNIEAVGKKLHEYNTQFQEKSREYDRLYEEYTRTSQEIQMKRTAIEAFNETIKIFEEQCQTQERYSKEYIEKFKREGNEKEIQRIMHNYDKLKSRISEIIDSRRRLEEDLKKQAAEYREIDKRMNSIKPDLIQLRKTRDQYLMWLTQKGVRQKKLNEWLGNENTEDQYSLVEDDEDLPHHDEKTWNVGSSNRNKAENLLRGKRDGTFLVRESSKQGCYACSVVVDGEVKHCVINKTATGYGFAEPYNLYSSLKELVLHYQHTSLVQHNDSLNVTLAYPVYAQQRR

Regarding `CC(C)n1cnc2c(-c3cccc(OCCCC(=O)NO)c3)nc(N(C)C)nc21` [compound 31, 4-(3-(2-(dimethylamino)-9-isopropyl-9H-purin-6-yl)phenoxy)-N-hydroxybutanamide], the “Microsomal Stability HLM, % of remaining parent compound” value in [1] (setting [5]) turned out to be 90%. In addition, in data set [2] (setting [6]), the “Microsomal Stability MLM, % of remaining parent compound” value came to 53%. The “Microsomal Stability RLM, % of remaining parent compound” value in [3] (setting [7]) is listed as 25%. In addition, the IC50 was 500 to 2000 nM with COLO 205; less than 500 nM with MV-4-11; 10 to 100 nM on HDAC1; 10 to 100 nM in [4]; 500 to 2000 nM with MCF7; 2000 to 10000 nM with PC-3. Besides, the IC50 in the data set on K-562 and in the data set on MOLT-4 was 500 to 2000 nM in each case.

For `COc1ccc2c(c1)[C@]13CCCC[C@@H]1[C@H](C2)N(C)CC3` [Dextromethorphan, dextromethorphan, reference compound], the “Microsomal Stability HLM, % of remaining parent compound” value in data set [1] (human liver microsomes 0.5 mg/mL, compound 5 μM, 30 or 45 min) is given as 65%. In data set [2] (mouse liver microsomes 0.5 mg/mL, compound 5 μM, 30 min), the “Microsomal Stability MLM, % of remaining parent compound” value worked out at 19%. Further, the “Microsomal Stability RLM, % of remaining parent compound” value in [3] (rat liver microsomes 0.5 mg/mL, compound 5 μM, 45 min) is 5%.

For the compound `CC(C)n1cnc2c(N3CCOCC3)nc(-c3ccc(OCCCC(=O)NO)cc3)nc21` [compound 82, N-hydroxy-4-(4-(9-isopropyl-6-morpholino-9H-purin-2-yl)phenoxy)butanamide], the “Microsomal Stability HLM, % of remaining parent compound” value in data set [1] (setting [5]) turned out to be 83%. For the same compound, the “Microsomal Stability RLM, % of remaining parent compound” value in [3] (setting [7]) amounted to 64%. The concentration for half-maximal inhibition (IC50) is greater than 10000 nM in the data set with COLO 205; 500 to 2000 nM with MV-4-11; 10 to 100 nM in data set [4]; 2000 to 10000 nM with MCF7; greater than 10000 nM in the data set with PC-3.

In the case of `CCn1c(CN(C)CCCCCC(=O)NO)nc2c(N3CCOCC3)nc(-c3cccc(CO)c3)nc21` [compound 97], the IC50 at PI3Kα fell in the range of 10 to 100 nM; in the data set on MV-4-11, 500 to 2000 nM; on HDAC1, 10 to 100 nM; on HDAC6, 100 to 1000 nM; in data set [4] it was 100 to 1000 nM; with MCF7, 2000 to 10000 nM. Moreover, the IC50 in the data set with PC-3 and in the data set with HepG2 was 2000 to 10000 nM throughout.

With `CCn1c(CN(C)Cc2ccc(C(=O)NO)cc2)nc2c(N3CCOCC3)nc(-c3ccc(OC)nc3)nc21` [compound 96, 4-((((9-ethyl-2-(6-methoxypyridin-3-yl)-6-morpholino-9H-purin-8-yl)methyl)(methyl)amino)methyl)-N-hydroxybenzamide], the IC50 with COLO 205 lay within 500 to 2000 nM; with HCT 116, 500 to 2000 nM; with MV-4-11 it was 500 to 2000 nM; in data set [4], 100 to 1000 nM; in the data set on MCF7 it was 500 to 2000 nM; in the data set on PC-3, 2000 to 10000 nM. Moreover, the values for the IC50 in the data set with HepG2, with K-562 and with MOLT-4 were 500 to 2000 nM, 2000 to 10000 nM and 500 to 2000 nM, respectively.

For `CC(C)n1cnc2c(-c3cccc(NC(=O)CCCCCCC(=O)NO)c3)nc(N3CCOCC3)nc21` [compound 4], the “Microsomal Stability HLM, % of remaining parent compound” value in data set [1] (setting [5]) was determined as 36%. Besides, the “Microsomal Stability RLM, % of remaining parent compound” value in [3] (setting [7]) is recorded as 42%. Moreover, the values for the IC50 at HDAC1, in the data set on MCF7 and with K-562 were 10 to 100 nM, 500 to 2000 nM and 500 to 2000 nM, respectively.

Take `CCCn1cnc2c(-c3cccc(OCCCC(=O)NO)c3)nc(N3CCOCC3)nc21` [compound 43, N-hydroxy-4-(3-(2-morpholino-9-propyl-9H-purin-6-yl)phenoxy)butanamide]: in data set [1] (setting [5]), the “Microsomal Stability HLM, % of remaining parent compound” value came out at 97%. The “Microsomal Stability MLM, % of remaining parent compound” value in data set [2] (setting [6]) was found to be 96%. In [3] (setting [7]), the “Microsomal Stability RLM, % of remaining parent compound” value is recorded as 54%. Also, the IC50 was 500 to 2000 nM in the data set with COLO 205; less than 500 nM with MV-4-11; 100 to 1000 nM at HDAC1; 10 to 100 nM in data set [4]; 500 to 2000 nM in the data set on MCF7; 500 to 2000 nM with PC-3. For the same compound, the IC50 with K-562 and in the data set on MOLT-4 was less than 500 nM in each case.

As to `CCn1cnc2c(-c3cccc(OCCCC(=O)NO)c3)nc(N3CCOCC3)nc21` [compound 45, 4-(3-(9-ethyl-2-morpholino-9H-purin-6-yl)phenoxy)-N-hydroxybutanamide], the “Microsomal Stability HLM, % of remaining parent compound” value in data set [1] (setting [5]) amounted to 105%. Besides, the “Microsomal Stability MLM, % of remaining parent compound” value in data set [2] (setting [6]) came to 78%. Also, the “Microsomal Stability RLM, % of remaining parent compound” value in data set [3] (setting [7]) turned out to be 45%. Moreover, the IC50 was 500 to 2000 nM in the data set on COLO 205; less than 500 nM in the data set on MV-4-11; 100 to 1000 nM at HDAC1; 10 to 100 nM in [4]; 500 to 2000 nM in the data set with MCF7; 500 to 2000 nM in the data set on PC-3. Further, the IC50 is 500 to 2000 nM with K-562 and less than 500 nM in the data set with MOLT-4.

Consider `CC(C)n1ccc2c(-c3cccc(OCCCC(=O)NO)c3)nc(N3CCOCC3)nc21` [compound 76, N-hydroxy-4-(3-(7-isopropyl-2-morpholino-7H-pyrrolo[2,3-d]pyrimidin-4-yl)phenoxy)butanamide], for which the IC50 in the data set on HCT 116 is less than 500 nM; in the data set on MV-4-11, less than 500 nM; on HDAC1, 10 to 100 nM; in [4] it was 10 to 100 nM; in the data set on MCF7, 500 to 2000 nM; with PC-3, 500 to 2000 nM. For the same compound, the IC50 in the data set with HepG2 is 500 to 2000 nM; with K-562, 500 to 2000 nM; in the data set on MOLT-4, less than 500 nM.

For the compound `CC(C)n1cnc2c(-c3cccc(OCCCCC(=O)NO)c3)nc(N3CCOCC3)nc21` [compound 10, N-hydroxy-5-(3-(9-isopropyl-2-morpholino-9H-purin-6-yl)phenoxy)pentanamide], the IC50 was 1000 to 10000 nM at PI3Kα; 2000 to 10000 nM with COLO 205; less than 500 nM in the data set with MV-4-11; 100 to 1000 nM at HDAC1; 10 to 100 nM in data set [4]; 500 to 2000 nM with MCF7. For the same compound, the IC50 lay in the range of 2000 to 10000 nM with PC-3 and 500 to 2000 nM with K-562. The “Microsomal Stability HLM, % of remaining parent compound” value in [1] (setting [5]) amounted to 87%. The “Microsomal Stability RLM, % of remaining parent compound” value in data set [3] (setting [7]) was determined as 74%.
